Assay results from paper PMC6274786 (International Journal of Molecular Sciences, 2018).

What was measured:
human histamine H3R = biological target: T1, human histamine H3R (Homo sapiens, UniProt Q9Y5N1); assay: [3H]Nα-methylhistamine radioligand displacement assay, HEK-293 cell membranes; type: binding
T1 construct: expressed in transfected cells
Protocol: As described previously, the affinity for the human histamine H3R was tested utilizing radioligand displacement assays with [^3H]N^α-methylhistamine at membrane preparations from human embryonic kidney (HEK)-293 cells, stably expressing the receptor. […] The analysis of data was conducted by the software GraphPad Prism 7 (San Diego, CA, USA), using the “one-site competition” equation. Ki values were calculated from the 50 percent of inhibitory concentration (IC50) values according to the Cheng-Prusoff equation [44]

MES-induced seizure = assay: Maximal electroshock (MES)-induced seizure; type: in vivo, Wistar rats; conditions: 10 mg/kg i.p.; for MES-Induced Seizure (protection class): 50 Hz, 120 mA, 1 s
Source text: As previously described, the seizures were induced in rats with a 50 Hz alternating current of 120 mA intensity. The current was applied through ear electrodes for 1 s. Protection against the spread of MES-induced seizure was defined as the abolition of the tonic hind limb extension (THLE) component of the seizure. For the first screening of protective effects of test compounds 1–16 in the MES-induced seizure model, the animals were divided into eighteen groups of seven rats (n = 7) as follows; group (1) control group injected with vehicle (SAL), group (2) positive control group in which rats were injected with PHT at a dose of 10 mg/kg (this being the minimal dose of PHT that protected animals against the spread of MES-induced seizures without mortality), and groups (3)–(18) animals in the experimental groups were administered H3R antagonists 1–16 at a dose of 10 mg/kg. In another MES experiment in three separate groups of six rats (n = 6), H3R antagonist 4 with the most promising protection in MES model was administered at doses of 2.5, 5, or 15 mg/kg, i.p. 30–45 min before the MES challenge.

PTZ-induced seizure = assay: Pentylenetetrazole (PTZ)-induced seizure; type: in vivo, Wistar rats; conditions: for PTZ-Induced Seizure (protection class): PTZ 60 mg/kg
Protocol: (§1) In this study and according to previously used protocols, two chemical agents have been used to induce seizures, namely pentylenetetrazole (PTZ, 60 mg/kg, i.p.) and strychnine (STR, 3.5 mg/kg, i.p.). PTZ 60 mg/kg or STR 3.5 mg/kg were administered i.p. to all groups of seven rats (n = 7), that is, animals pretreated with vehicle or test compounds 1–16. Vehicle, VPA (300 mg/kg, i.p.), [26, 47, 48, 49] or test compounds 1–16 (10 mg/kg, i.p.) were systemically administered 30–45 min before PTZ (60 mg/kg, i.p.) or STR (3.5 mg/kg, i.p.) injection, and animals were directly observed for any signs of convulsion for a duration of 30 min. The observed scores as well as percent protection against generalized tonic-clonic seizure (GTCS) were graded and scaled according to the Racine scale (stage 0, no change in behavior; stage 1, stereotype mouthing, eye blinking, and/or mild facial clonus; stage 2, head nodding and/or severe facial clonus; stage 3, myoclonic jerk in forelimbs; stage 4, clonic convulsions in the forelimbs with rearing; stage 5, generalized colonic convulsions associated with loss of balance) to evaluate the protection provided by the respective test compound against seizures. The animals were divided into eighteen groups of seven rats (n = 7) and treated as follows.
(§2) (1) Control group injected with vehicle + PTZ (SAL group), (2) positive control group in which rats were injected with VPA (300 mg/kg) + PTZ (VPA group), and animals in the test groups (3)–(18) were systemically administered with test compounds 1–16 (10 mg/kg), respectively. An additional PTZ experiment was conducted using three different groups of seven rats (n = 7), the H3R ligand with the most promising protection in PTZ model was administered at doses of 2.5, 5, or 15 mg/kg, i.p. 30–45 min before the PTZ challenge. […] The same experimental procedure was followed in the STR-induced seizure model applying the reference drug VPA, which was used at a dose of 300 mg/kg, i.p. (Figure 3, Table 2).

STR-induced seizure = assay: Strychnine (STR)-induced seizure; type: in vivo, Wistar rats; conditions: for STR-Induced Seizure (protection class): STR 3.5 mg/kg
Protocol: as §1, §2

human H1 receptor = biological target: T2, human H1 receptor (Homo sapiens, UniProt P35367); assay: Radioligand binding, membranes from CHO-K1 cells
T2 construct: purchased PerkinElmer; host or cells: CHO-K1 cells, stably transfected (membranes)
Protocol: Radioligand binding was performed as previously described using membranes from CHO-K1 cells stably transfected with the human H1 receptor (PerkinElmer., Waltham, MA, USA). Data were fitted to a one-site curve-fitting equation with Prism 6 (GraphPad Software, city, state, country) and Ki values were estimated from the Cheng–Prusoff equation [44].

hH4R = biological target: T3, hH4R (Homo sapiens, UniProt Q9H3N8); assay: H4R radioligand displacement assay, Sf9 cell membrane preparations; type: binding
T3 construct: expressed in transfected cells; host or cells: Sf9 insect cells (membrane preparations)
Protocol: H4R radioligand displacement assays were performed with Sf9 cell membrane preparations, expressing the hH4R, as described previously. Assays ran in triplicates with four appropriate concentrations of the test compound. Data were analyzed by GraphPad Prism 7, using the “one-site competition” equation.

T2 sequence (P35367 whole entry): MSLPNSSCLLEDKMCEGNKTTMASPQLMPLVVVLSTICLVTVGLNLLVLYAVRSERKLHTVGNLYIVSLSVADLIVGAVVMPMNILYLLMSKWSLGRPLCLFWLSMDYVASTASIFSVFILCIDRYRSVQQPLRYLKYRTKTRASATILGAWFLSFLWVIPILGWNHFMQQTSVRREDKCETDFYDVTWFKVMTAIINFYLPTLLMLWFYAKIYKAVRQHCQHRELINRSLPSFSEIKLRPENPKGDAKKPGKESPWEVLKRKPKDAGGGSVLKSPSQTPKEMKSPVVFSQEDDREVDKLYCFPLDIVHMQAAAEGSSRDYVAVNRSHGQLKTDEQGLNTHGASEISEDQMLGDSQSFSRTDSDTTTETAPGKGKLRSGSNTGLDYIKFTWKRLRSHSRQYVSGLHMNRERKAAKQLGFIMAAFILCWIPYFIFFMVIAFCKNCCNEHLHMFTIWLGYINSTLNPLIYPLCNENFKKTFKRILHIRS
T1 sequence (Q9Y5N1 whole entry): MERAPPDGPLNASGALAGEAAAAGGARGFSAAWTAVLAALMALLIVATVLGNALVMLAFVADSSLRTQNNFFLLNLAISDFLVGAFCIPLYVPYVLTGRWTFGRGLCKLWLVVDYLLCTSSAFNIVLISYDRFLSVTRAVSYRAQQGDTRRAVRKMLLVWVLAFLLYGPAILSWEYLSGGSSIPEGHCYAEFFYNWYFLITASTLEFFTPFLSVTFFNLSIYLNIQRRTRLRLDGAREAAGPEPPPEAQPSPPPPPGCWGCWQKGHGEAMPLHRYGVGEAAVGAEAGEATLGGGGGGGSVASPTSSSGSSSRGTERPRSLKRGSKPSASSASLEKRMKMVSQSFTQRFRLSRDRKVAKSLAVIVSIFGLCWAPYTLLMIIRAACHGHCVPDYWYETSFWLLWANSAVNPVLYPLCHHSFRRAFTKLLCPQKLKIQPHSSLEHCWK
T3 sequence (Q9H3N8 whole entry): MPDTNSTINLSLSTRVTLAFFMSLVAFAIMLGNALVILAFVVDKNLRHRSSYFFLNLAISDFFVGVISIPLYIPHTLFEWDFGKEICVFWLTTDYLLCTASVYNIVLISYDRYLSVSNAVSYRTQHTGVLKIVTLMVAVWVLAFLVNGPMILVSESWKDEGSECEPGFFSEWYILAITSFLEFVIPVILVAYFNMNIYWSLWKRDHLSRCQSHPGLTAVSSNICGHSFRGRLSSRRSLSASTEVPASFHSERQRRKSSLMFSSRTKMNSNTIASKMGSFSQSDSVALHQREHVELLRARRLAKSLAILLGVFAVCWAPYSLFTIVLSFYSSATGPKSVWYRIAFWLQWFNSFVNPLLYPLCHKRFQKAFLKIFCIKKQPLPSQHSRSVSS

| Compound | Ki (human histamine H3R) [nM] | MES-Induced Seizure (protection class) (MES-induced seizure) | PTZ-Induced Seizure (protection class) (PTZ-induced seizure; 10 mg/kg i.p.) | STR-Induced Seizure (protection class) (STR-induced seizure; 10 mg/kg i.p.) | further results |
| --- | --- | --- | --- | --- | --- |
| O=C(O)C(=O)O.O=C(c1ccccc1)c1ccc(OCCCCCN2CCCCC2)cc1 [Ligand 14, phenyl(4-(5-(piperidin-1-yl)pentyloxy)phenyl)methanone hydrogen oxalate] | 36.2 | + (moderate protective effect (tonic hind limb extension (THLE) duration in the range of 2–5 s, seizure score in the range of 2–4)) | + (moderate protective effect (tonic hind limb extension (THLE) duration in the range of 2–5 s, seizure score in the range of 2–4)) | − |  |
| O=C(O)C(=O)O.O=C(c1ccccc1)c1ccc(OCCCCCCN2CCCCCC2)cc1 [Ligand 7, (4-(6-(azepan-1-yl)hexyloxy)phenyl)(phenyl)methanone hydrogen oxalate] | 40.5 | + (moderate protective effect (tonic hind limb extension (THLE) duration in the range of 2–5 s, seizure score in the range of 2–4)) | ++ (high protective effect (THLE duration <1, seizure score 0)) | − | Ki (human H1 receptor): 915 nM; fold lower affinity at hH1- and H4Rs than at H3R (human H1 receptor; selectivity toward H3Rs): at least 10 fold; Ki (hH4R): > 10000 nM; protective effect in PTZ-induced seizure (in words) (PTZ-induced seizure; 10 mg/kg i.p., observed over 30 min, vs saline-treated group): full protective activities; protective effect in STR-induced seizure (in words) (STR-induced seizure; 10 mg/kg i.p., 30 min observation, vs saline-treated group): failed to exhibit appreciable protection |
| CCCC(CCC)C(=O)O [VPA, valproic acid, reference compound] |  |  |  |  | PTZ-Induced Seizure % Protection against GTCS (PTZ-induced seizure; 300 mg/kg i.p.): 100%; PTZ-Induced Seizure Average Seizure Score (PTZ-induced seizure; 300 mg/kg i.p.): 0.00 ± 0.00; STR-Induced Seizure % Protection against GTCS (STR-induced seizure; 300 mg/kg i.p.): 100%; STR-Induced Seizure Average Seizure Score (STR-induced seizure; 300 mg/kg i.p.): 0 |
| O=C1NC(=O)C(c2ccccc2)(c2ccccc2)N1 [PHT, phenytoin, reference compound] |  |  |  |  | MES-Induced Seizure Average THLE (MES-induced seizure): 0.90 ± 0.19 s |
| O=C(O)C(=O)O.O=C(c1ccccc1)c1cccc(OCCCCCCN2CCCCCC2)c1 [Ligand 10, (3-(6-(azepan-1-yl)hexyloxy)phenyl)(phenyl)methanone hydrogen oxalate] | 69.5 | − | − | − |  |
| CC1CCCN(CCCCCOc2ccc(C(=O)c3ccccc3)cc2)C1.O=C(O)C(=O)O (stereo not shown) [Ligand 15, (4-(5-(3-methylpiperidin-1-yl)pentyloxy)phenyl)(phenyl)methanone hydrogen oxalate] | 40.2 | − | + (moderate protective effect (tonic hind limb extension (THLE) duration in the range of 2–5 s, seizure score in the range of 2–4)) | − | Ki (human H1 receptor): 915 to 1340 nM |
| CC1CCCN(CCCCCCOc2ccc3ccccc3c2)C1.O=C(O)C(=O)O (stereo not shown) [Ligand 3, 3-methyl-1-(6-(naphthalen-2-yloxy)hexyl)piperidine hydrogen oxalate] |  | ++ (high protective effect (THLE duration <1, seizure score 0)) | − | − |  |
| O=C(O)C(=O)O.O=C(c1ccccc1)c1ccc(OCCCCCN2CCCCCC2)cc1 [Ligand 16, (4-(5-(azepan-1-yl)pentyloxy)phenyl)(phenyl)methanone hydrogen oxalate] | 38.5 | − | − | − |  |
